Source: patent US20150299670A1, “COMBINING GENETIC TRAITS FOR FURFURAL TOLERANCE” (priority 2012, published 2015)
Values after ≈ are worked out from the molar mass of the structure shown.

How the values were obtained:
[1] = tested on: XW055; assay: Furfural tolerance in tube cultures; assay type: cell-based; details: Escherichia coli, strain XW055, AM1 medium, 50 g/L xylose, 48 h, read-out: minimal inhibitory concentration of furfural
Method: (§1) Furfural toxicity was measured in tube cultures (13 mm by 100 mm) as previously described for ethanol strains (17, 22). For succinate strains, tubes contained 4 ml of AM1 medium with 50 g/L xylose, 50 mM KHCO3, and 100 mM MOPS as a buffer. Tubes were inoculated with starting cell density of 44 mg/L. Cell mass was measured at 550 nm after incubation for 48 h (37° C.).

[2] = tested on: XW120; assay: Furfural tolerance in tube cultures; assay type: cell-based; details: Escherichia coli, 48 h, read-out: minimal inhibitory concentration of furfural
Method: as §1

[3] = tested on: XW136; assay: Furfural tolerance in tube cultures; assay type: cell-based, Escherichia coli; details: strain XW136 (XW120 with adhE::fucO), AM1 medium, 50 g/L xylose, 48 h
Method: as §1

[4] = tested on: LY180; assay: Batch ethanol fermentation in AM1 medium with furfural; assay type: cell-based, Escherichia coli; details: 15 mM furfural, AM1 mineral salts medium, 100 g/L xylose
Method: (§2) FIGS. 4A-C. Comparison of batch fermentations for the parent LY180 and the plasmid-free, furfural-resistant strain XW129. […] For A (cell mass) and B (ethanol and furfural), fermentations were conducted in mineral salt medium AM1 (100 g/L xylose and 15 mM furfural). Control fermentations without furfural were also included. Fermentations (C) were also conducted using hemicellulose hydrolysate containing 36 g/L total sugar, supplemented with AM1 nutrients and 0.5 mM sodium metabisulfite. Data represent averages of at least 2 experiments with standard deviations.
(§3) Ethanol fermentations with xylose were carried out as previously described (17, 22), with and without furfural. For succinate production from xylose, seed pre-cultures of strains were grown in sealed culture tubes containing AM1 medium (20 g/L xylose, 50 mM KHCO3 and 100 mM MOPS). After incubation for 16 h, pre-inocula were diluted into 500-ml fermentation vessels containing 300 ml AM1 media (100 g/L xylose, 1 mM betaine and 100 mM KHCO3) at an initial density of 6.6 mg dry cell weight. After 24 h growth, these seed cultures were used to provide starting inocula for batch fermentations (AM1 medium, 100 g/L xylose and 100 mM KHCO3). Fermentations were maintained at pH 7.0 by automatic addition of base containing additional CO2 (2.4 M potassium carbonate in 1.2 M potassium hydroxide) as previously described (27). Quantitative analyses of sugars, ethanol, furfural, and succinate were as previously described (17, 27, 38).

[5] = tested on: XW129; assay: as above; assay type: cell-based, Escherichia coli; details: 15 mM furfural, AM1 mineral salts medium, 100 g/L xylose
Method: as §2, §3

Compound: O=Cc1ccco1 [furfural]
- MIC [1]: 7.5 mM (≈ 721 µg/mL)
- MIC [2]: 15 mM (≈ 1440 µg/mL)
- furfural tolerance [3]: 17.5 mM
- growth and fermentation [4]: completely blocked
- delay of growth [5]: 24 h
- extension of time required to complete fermentation [5]: 6 h
